In patent US20240117005A1, “NOVEL BICYCLIC PEPTIDES” (THE COUNCIL OF THE QUEENSLAND INSTITUTE OF MEDICAL RESEARCH, priority 2021, published 2024):
“Also recorded” adds a separate entry of the source. No end group written: not given here. *: point of attachment. Myristyl = CCCCCCCCCCCCCC*

Legend:
[1] = tested on: CSV, ABCB5, EGFR, FOXQ1, E-Cadherin in MDA-MB-231 cells; experiment: High resolution digital pathology of mesenchymal/epithelial markers, MDA-MB-231; assay type: cell-based, human
Method: (§1) To examine the signature of CD8, CSV, EGFR, ABCB5, FOXQ1, commercial PD-L1-28-8, nuclear PD-L1, cytoplasmic PDL1 in MDA-MB-231 TNBC cells/TNBC brain cancer clone cells (untreated or treated with bicyclic inhibitors targeting nuclear PD-L1-PTM1). MDA-MB-231/MDA-MB-231-Br cells were permeabilised by incubating with 0.5% Triton X-100 for 15 min, blocked with 1% BSA in PBS and were probed with either CSV (Mouse host), CD8 (mouse host), EGFR (Rabbit host), ABCB5 (Goat Host), ALDH1A (Rabbit Host), NODAL (Goat Host), nuclear PDL1 (rabbit host), cytoplasmic PD-L1 (rabbit host) visualized with a donkey anti-rabbit AF 488, anti-mouse AF 568, donkey anti-goat 647. Cover slips were mounted on glass microscope slides with ProLong Glass Antifade reagent (Life Technologies). Protein targets were localised by digital pathology laser scanning microscopy. Single 0.5 μm sections were obtained using a ASI Digital pathology microscope using 100× oil immersion lens running ASI software. The final image was obtained by averaging four sequential images of the same section. Digital images were analyzed using automated ASI software (Applied Spectral Imaging, Carlsbad, CA) to determine the distribution and intensities automatically with automatic thresholding and background correction of the average nuclear fluorescence intensity (NFI), allowing for the specific targeting of expression of proteins of interest. Digital images were also analysed using ImageJ software (ImageJ, NIH, Bethesda, MD, USA) to determine the total cell fluorescence or cell surface only fluorescence for non-permeabilised cells. Digital images were analysed using ImageJ software (ImageJ, NIH, Bethesda, MD, USA) to determine either the Total Nuclear Fluorescent Intensity (TNFI), the Total Cytoplasmic Fluorescent Intensity (TCFI). ImageJ software with automatic thresholding and manual selection of regions of interest (ROIs) specific for cell nuclei was used to calculate the Pearson's co-efficient correlation (PCC) for each pair of antibodies. PCC values range from: −1=inverse of co-localisation, 0=no co-localisation, +1=perfect co-localisation. The Mann-Whitney nonparametric test (GraphPad Prism, GraphPad Software, San Diego, CA) was used to determine significant differences between datasets.
All breast cancer cell lines used were sourced from ATCC. MDA-MB-231 or MDB-MB-231-Br cell lines were maintained and cultured in DMEM (Invitrogen) supplemented with 10% FBS, 2 mM L-glutamine, and 1% PSN. […]
(§2) MDA-MB-231 were permeabilized and treated with either vehicle control or, DL-2 (current stock), or linear PDL1 (PDL1-L1). […] Significant differences are calculated as one-way ANOVA Kruskal-Wallis test comparison to vehicle control. […]

PD-L1-Me3 (PD-L1-PTM2) = experiment: High resolution digital pathology of PD-L1-Me3 (PDL1-PTM2) localisation; assay type: cell-based, human; conditions: for cytoplasmic expression of PDL1-PTM2 (PDL1-Me3): MDA-MB-231, vs vehicle control
Method: as §1
All breast cancer cell lines used were sourced from ATCC. MDA-MB-231 or MDB-MB-231-Br cell lines were maintained and cultured in DMEM (Invitrogen) supplemented with 10% FBS, 2 mM L-glutamine, and 1% PSN. MCF-7 cells were stimulated with 1.29 ng/mL phorbol 12-myristate 13-acetate (PMA) (Sigma-Aldrich) or 5 ng/ml recombinant TGF-β1 (R&D Systems) for 60 hours. For inhibitor studies, 2×10^5 cells were seeded in 2 mL complete media in 6 well plates and incubated overnight at 37° C./5% CO2. Cells were treated with PD-L1 bicyclic peptides targeting the nuclear axis PD-L1, HDAC2i or vehicle control. For qPCR analysis, at each time point, adherent cells were trypsinized, washed and cell pellets stored at −80° C. until further processing. For microscopy studies, 4×10^4 cells were seeded on coverslips and treated with inhibitors as described above. At each timepoint, coverslips were washed, fixed with 3.7% formaldehyde (Sigma) and stored at 4° C. until processing. […]
as §2

[2] = biological target: T1, complex of PDL1-PTM1 and IMPα1 (Mus musculus, UniProt P52293); experiment: DUOLINK proximity assay PDL1-PTM1 and IMPα1, CT26; assay type: cell-based
T1 construct: endogenous in cells; host or cells: CT26
Method: (A) CT26, 4T1 or MDA-MB-231 Cells were treated with inhibitors for 72 hours. Following inhibition, media was removed and replaced with WST-1 cell proliferation reagent. Absorbance was recorded at 450 nm after 1 hour. Data represent a single independent experiment performed in triplicate. Results are graphed as mean +/− standard error (SE). B) MDA-MB-231 or CT26 cancer cells were treated with vehicle control, DL-2-Batch 1 (original stock), DL-2-Batch 2 (current stock), DL-2-TBAB or linear PDL1. Cells were permeabilised and were probed with the DUOLINK ligation assay. Cover slips were mounted on glass microscope slides with ProLong nucblue glass Antifade reagent (Life Technologies). PDL1Ac and IMPα1 DUOLINK Digital images were analysed using ImageJ software (ImageJ, NIH, Bethesda, MD, USA) and graphs represent the mean DOT Fluorescent Intensity in the nucleus or the cytoplasm compartments with significant differences calculated as per one-way ANOVA comparison. […] PDL1-unmodified and IMPα1 DUOLINK digital images were analysed using ImageJ software (ImageJ, NIH, Bethesda, MD, USA) and graphs represent the mean DOT fluorescent intensity in the nucleus or the cytoplasm compartments with significant differences calculated as per one-way ANOVA comparison. […]

CSC = CSC inhibition (Table 10 summary); assay type: cell-based; conditions: linear peptide derivatives; change stated relative to prototype PDL1-L1

| Molecule | expression of the epithelial marker E-Cadherin ([1]; MDA-MB-231) | expression of mesenchymal marker CSV (CFI) ([1]; MDA-MB-231, vs vehicle control) | mesenchymal stem-like resistant protein markers (CSV, ABCB5, EGFR, FOXQ1) ([1]; MDA-MB-231, vs vehicle control) | cytoplasmic expression of PDL1-PTM2 (PDL1-Me3) (PD-L1-Me3 (PD-L1-PTM2)) | expression of cell surface PD-L1-Me3 (PD-L1-Me3 (PD-L1-PTM2); non-permeabilized MDA-MB-231 cells) | cytoplasmic/cell surface PD-L1-Me3 (PD-L1-Me3 (PD-L1-PTM2); permeabilized MDA-MB-231 cells) | expression of nuclear PD-L1-Me3 (PD-L1-Me3 (PD-L1-PTM2); permeabilized MDA-MB-231 cells) | complex of PDL1-PTM1 and IMPα1 (DUOLINK) [2] | expression of mesenchymal marker CSV (CFI) ([1]; MDA-MB-231, vs vehicle control, listed as linear PDL1 peptide) | cytoplasmic expression of PDL1-PTM2 (PDL1-Me3) (PD-L1-Me3 (PD-L1-PTM2); listed as linear PDL1 peptide) | Potency (CSC inhibition) (CSC) |
| --- | --- | --- | --- | --- | --- | --- | --- | --- | --- | --- | --- |
| CCCCCCCCCCCCCC(=O)NC(C)C(=O)NC1CSCc2cc3cc(c2)CSC[C@H](NC(=O)[C@H](Cc2ccccc2)NC(=O)[C@H](C(C)CC)NC(=O)[C@H](Cc2ccccc2)NC(=O)[C@H]([C@@H](C)O)NC(=O)C(CC(C)C)NC1=O)C(=O)N[C@@H](CCCNC(C)=N)C(=O)N[C@@H](CC(C)C)C(=O)N[C@@H](CCCNC(=N)N)C(=O)N[C@@H](CCCCN)C(=O)NCC(=O)N[C@@H](CCCNC(=N)N)C(=O)NC(C(=O)N[C@@H](CCSC)C(=O)NC(CCSC)C(=O)N[C@@H](CC(=O)O)C(=O)NC(C(=O)N[C@@H](CCCCN)C(=O)NC(CCCCN)C(=O)O)C(C)C)CSC3 (mixture of isomers) [DL-2] | able to induce expression | inhibit | significantly inhibit | induce increased cytoplasmic expression | significant upregulation | significantly upregulating | abrogating | able to successfully abrogate the complex | – | – | – |
| LTFIFRLRKGRMMDVKK (Myristyl-LTFIFRLRKGRMMDVKK) [PDL1-L1, Myristyl- linear peptide, prototype] | – | – | – | – | – | – | – | no change | reduce expression of CSV with far less significance; also recorded: able to reduce expression of CSV | not able to induce any increased expression; also recorded: did not induce any increased expression | Weak |
